Laboratory results reported in patent EP1438962A1, “DRUGS COMPRISING COMBINATION OF TRIAZASPIRO 5,5 U NDECANE DERIVATIVE WITH CYTOCHROME P450 ISOZYME 3A4 INHIBITOR AND/OR P−GLYCOPROTEIN INHIBITOR” (ONO PHARMACEUTICAL CO., LTD., priority 2001, dated 2003).
Read-outs that look alike come from different tables or passages of the source.

Columns and labels:
[1] = Plasma concentration upon oral administration to rats in the presence of an HIV protease inhibitor; type: in vivo; details: male SD rats
Procedure: Amprenavir, nelfinavir, ritonavir or saquinavir (10 mg/kg) which is an HIV protease inhibitor and 10 mg/kg of the test compound were orally administered to male SD rats at the same time. After 15, 30, 60, 120, 240 and 360 minutes from the administration of the test compound, blood was collected from the rat jugular vein and centrifuged at 3,000 rpm for 10 minutes to give plasma. To 200 µL of the resulting plasma were added 50 ng of (3S)-1-butyl-2,5-dioxo-3-(2-methylpropyl)-9-)4-phenyloxyphenylmethyl)-1,4,9-triazaspiro[5.5]undecane as an internal standard. To this were added 300 µL of distilled water and 2,000 µL of diethyl ether, followed by well stirring, and the diethyl ether layer recovered therefrom was dried in vacuo. The dried substance was dissolved in 150 µL of a 50% acetonitrile solution containing 0.005% trifluoroacetic acid and subjected to a liquid chromatography/tandem mass analysis (LC/MS/MS) method to measure a plasma concentration of the test compound. From the concentration of the test compound in the resulting plasma, the area under curve of plasma concentration vs. time (AUC, µg·min/mL) was calculated.

[2] = test system: parent cells thereof (LLC-PK 1); experiment: Membrane permeability of parent cells; type: in vitro ADME; details: PK 1 cells, CsA (-), compound 10 µM
Procedure: (§1) Human MDR1 expressed cells (LLC-GA-5-COL 150) and parent cells thereof (LLC-PK 1) were incubated until arriving confluent in a 12-well transwell plate to prepare a single-layer membrane. Compound 75(54) was adjusted to 10 µM using a buffer for the measurement (M 199, 26.2 mM NaHCO3, 10% FBS, 0.03% L-glutamine; pH 7.4). In measuring the membrane permeability from lumen to blood vessel, the drug solution was loaded to the lumen while, in measuring the membrane permeability from blood vessel to lumen, it was loaded to the blood vessel and incubation was carried out under conditions at 37°C, 5% CO2 and relative humidity of 90%. After a certain period, the sample solution was collected and, in order to keep each volume, a buffer for the measurement was supplemented to an extent of the collected volume. Similarly, membrane permeability of Compound 75(54) was observed as well in the presence of cyclosporine A (abbreviated as CsA; final concentration: 10 µM) which is an inhibitor for P-gp. The measurement was carried out 3 times. All samples were evaluated by means of LS/MS/MS.

[3] = Plasma concentration after intravenous administration in rat in the presence of CYP 3A4 inhibitor; type: in vivo; details: male SD rats, test compound 3 mg/kg intravenously; for AUC increase in the presence of ketoconazole versus absence: ketoconazole 50 mg/kg intraperitoneally; for AUC at 4 h: rat, in vivo, iv, 3 mg/kg
Procedure: Ketoconazole (50 mg/kg), an inhibitor against CYP 3A4, was intraperitoneally administered to male SD rats. One hour thereafter, the test compound (3 mg/kg) was intravenously administered. After 2, 5, 15, 30, 60, 120 and 240 minutes from the administration of the test compound, blood was collected from the rat jugular vein and centrifuged at 3,000 rpm for 10 minutes to obtain plasma. To 150 µL of the resulting plasma were added 5 ng of 2-[4-[4-(2-methoxyphenyl)-1-piperazinyl]butylamino]-5-ethoxycarbonyl-4,6-dimethylpyrimidine trihydrochloride as an internal standard, proteins were removed therefrom using ethanol and a plasma concentration of the test compound was measured by high-performance liquid chromatography. From the resulting plasma concentration of the test compound, the area under the curve of plasma concentration vs. time (AUC, µg·min/mL) was calculated.

[4] = test system: Human MDR1 expressed cells (LLC-GA-5-COL 150); experiment: Membrane permeability of P-gp expression cells; type: in vitro ADME; details: COL 150 cells, CsA (-), compound 10 µM
Procedure: as §1

[5] = Plasma concentration upon oral administration to rats in the presence of CYP 3A4 inhibitor; type: in vivo; details: male SD rats, test compound 30 mg/kg orally, ketoconazole 50 mg/kg intraperitoneally one hour before
Procedure: Ketoconazole (50 mg/kg), a CYP 3A4 inhibitor, was intraperitoneally administered to male SD rats. One hour thereafter, 30 mg/kg of the test compound was orally administered. After 15, 30, 60, 120, 240 and 360 minutes from administration of the test compound, blood was collected from the rat jugular vein and centrifuged at 3,000 rpm for 10 minutes to give plasma. To 150 µL of the resulting plasma were added 5 ng of 2-[4-[4-(2-methoxyphenyl)-1-piperazinyl]butyl-amino]-5-ethoxycarbonyl-4,6-dimethylpyrimidine trihydrochloride, proteins were removed therefrom using ethanol and plasma concentration of the test compound was measured by high-performance liquid chromatography. From the concentration of the test compound in the resulting plasma, the area under curve of plasma concentration vs. time (AUC, µg•min/mL) was calculated.

CYP 3A4 = experiment: Metabolic reaction in pooled human liver microsome with or without the CYP 3A4 inhibitor ketoconazole; type: in vitro ADME; details: 1 µmol/L test compound, 37°C, after 60 minutes; for Residual rate (%) Ketoconazole (+): ketoconazole 1 µmol/L; for Residual rate (%) Ketoconazole (-): without ketoconazole
Source text: Metabolic reaction of a test compound in pooled human liver microsome (Zenotec) in the presence of a specific inhibitor for each CYP molecular species was investigated and the CYP molecular species participating in the metabolism was estimated from the effect of each inhibitor.
The following inhibitors were used as the specific inhibitors for CYP molecular species:
A mixed solution containing 100 mmol/L of a phosphate buffer (pH 7.4), 0.05 mmol/L disodium ethylenediaminetetraacetate, 5 mmol /L magnesium chloride, 1 µmol/L of a test compound, 0.2 mg/L of human liver microsome (8 mg/L only for the measurement of a metabolism inhibiting rate by CYP 2C19) and each inhibitor (each of the numerals being the final concentration) was pre-incubated at 37°C, and then 2 mmol/L NADPH was added thereto to start the reaction. Immediately thereafter and after 60 minutes, 100 µL. of the sample was collected. The collected sample was immediately added to 2 mL of diethyl ether containing 400 µL of distilled water and 0.1 µg/L of an internal standard substance, followed by stirring, and the reaction was stopped. After a centrifugal treatment (2,000 rpm for 3 minutes), diethyl ether which was an upper layer was collected and dried in vacuo. The residue was dissolved in 150 µL of 0.01% TFA-80% acetonitrile and 40 µL thereof was subjected to a measurement. In this test, no quantitative determination was conducted but the residual rate to the concentration of the compound immediately after starting the reaction was determined from the area ratio in liquid chromatography/tandem mass analysis (LC/MS/MS) chromatogram.

Caco-2 cells = experiment: Permeability of Caco-2 in the presence of P-gp inhibitor; type: in vitro ADME; details: drug 10 µM
Procedure: Caco-2 cells were incubated in a 12-well transwell place on a collagen-coated porous polycarbonate membrane until arriving confluent to prepare a single-layer membrane of Caco-2 cells. The single-layer membrane was preincubated for 30 minutes in a buffer for the measurement (a Hanks buffer containing 10 mM HEPES and 15 mM glucose; pH 7.0 ± 0.2) to which d-α-tocopheryl polyethylene glycol 1000 succinate, a P-gp inhibitor, was added. The drug concentration was adjusted to 10 µM by a buffer for the measurement. In measuring the membrane permeability from lumen to blood vessel, the drug solution was loaded to the lumen while, in measuring the membrane permeability from blood vessel to lumen, it was loaded to the blood vessel and incubation was carried out under conditions at 37°C, 5% CO2 and relative humidity of 90%. After 1 and 2 hours from the administration of the drug, 200 µL of the buffer for the measurement containing the drug solution were recovered and substituted with a new buffer for the measurement. The measurement was carried out 2 times. Membrane permeability in a cell-free state was measured and used as a blank. As a control, permeability of Lucifer Yellow was measured. All samples were evaluated by LC/MS. A permeation coefficient (Papp) was calculated according to the following equation. Papp = (dc / dt) • Vr / (A • C0 ) [formula]
In the equation, dc/dt is a permeation rate after lag time; Vr is a volume of the solution at the side of a donor; A is a surface area; and C0 is the initial concentration of the solution at the side of the donor.

In the case of `CCCCN1C(=O)[C@@H]([C@H](O)C2CCCCC2)NC(=O)C12CCN(Cc1ccc(Oc3ccc(C(=O)O)cc3)cc1)CC2` [Compound 75(54), (3R)-1-butyl-2,5-dioxo-3-((1R)-1-hydroxy-1-cyclohexylmethyl)-9-(4-(4-carboxyphenyloxy)phenylmethyl)-1,4,9-triazaspiro[5.5]undecane], the “AUC increase in the presence of amprenavir versus absence” value ([1]; test compound 10 mg/kg and amprenavir 10 mg/kg orally at the same time) is reported as 3.7 times, the “AUC increase in the presence of nelfinavir versus absence” value ([1]; test compound 10 mg/kg and nelfinavir 10 mg/kg orally at the same time) is reported as 3.4 times and the “AUC increase in the presence of ritonavir versus absence” value ([1]; test compound 10 mg/kg and ritonavir 10 mg/kg orally at the same time) is reported as 7.7 times. For the same compound, the “AUC increase in the presence of saquinavir versus absence” value ([1]; test compound 10 mg/kg and saquinavir 10 mg/kg orally at the same time) was 1.7 times, the “Permeability From blood vessel to lumen” value [2] was 18.8 µL/cm^2/hr and the “Permeability From lumen to blood vessel” value [2] was 35.3 µL/cm^2/hr. The “AUC increase in the presence of ketoconazole versus absence” value [3] was “about 3 times”, the “Permeability From blood vessel to lumen” value [4] was 34.3 µL/cm^2/hr and the “Permeability From lumen to blood vessel” value [4] was 2.06 µL/cm^2/hr. The “AUC increase in the presence of ketoconazole versus absence” value [5] was 10 times, the “Residual rate (%) Ketoconazole (+)” value (CYP 3A4) was 95.3% and the “Residual rate (%) Ketoconazole (-)” value (CYP 3A4) was 34.4%. For the same compound, the “Permeation Coefficient From blood vessel to lumen” value (Caco-2 cells; Caco-2, 0.025% TPGS (+)) was 13 cm/s, the “Permeation Coefficient From lumen to blood vessel” value (Caco-2 cells; Caco-2, 0.025% TPGS (+)) was 10.5 cm/s and the “Permeation Coefficient From blood vessel to lumen” value (Caco-2 cells; Caco-2, 0.025% TPGS (-)) was 32.4 cm/s. For the same compound, the “Permeation Coefficient From lumen to blood vessel” value (Caco-2 cells; Caco-2, 0.025% TPGS (-)) was 3.42 cm/s.
For `CCCCN1C(=O)[C@H](CC2CCCCC2)NC(=O)C12CCN(Cc1ccc(Oc3ccc(C(=O)O)cc3)cc1)CC2` [Compound 40(70), (3S)-1-butyl-2,5-dioxo-3-cyclohexylmethyl-9-(4-(4-carboxyphenyloxy)phenylmethyl)-1,4,9-triazaspiro[5.5]undecane], the “Residual rate (%) Ketoconazole (+)” value (CYP 3A4) was 104.0% and the “Residual rate (%) Ketoconazole (-)” value (CYP 3A4) was 28.2%.
With `CCCCN1C(=O)C(CC(C)C)NC(=O)C12CCN(Cc1c(C)nn(-c3ccccc3)c1C)CC2` (stereo not shown) [Compound 3(1)] the “AUC increase in the presence of ketoconazole versus absence” value [3] was “about 4 times”, the AUC at 4 h ([3]; ketoconazole 50 mg/kg intraperitoneally one hour before, read-out: AUC in the presence of ketoconazole (converted)) was 4350 ng·h/mL and the AUC at 4 h ([3]; no ketoconazole, read-out: AUC in the absence of ketoconazole (converted)) was 1020 ng·h/mL. The “Residual rate (%) Ketoconazole (+)” value (CYP 3A4) was 89.1% and the “Residual rate (%) Ketoconazole (-)” value (CYP 3A4) was 32.1%.
For `CCCCN1C(=O)[C@@H]([C@H](O)C2CCCCC2)NC(=O)C12CCN(Cc1c(C)nn(-c3ccc(C(=O)NC)cc3)c1C)CC2` [Compound 75(53), (3R)-1-butyl-2,5-dioxo-3-((1R)-1-hydroxy-1-cyctohexylmethyl)-9-(3,5-dimethyl-1-(4-methylaminocarbonylphenyl)pyrazol-4-ylmethyl)-1,4,9-triazaspiro[5.5]undecane], the “Residual rate (%) Ketoconazole (+)” value (CYP 3A4) was 114.4% and the “Residual rate (%) Ketoconazole (-)” value (CYP 3A4) was 19.4%.
